Tests used:
conscious dogs [1] = experiment: Regadenoson-induced coronary vasodilation (CBF) with and without caffeine in conscious dogs; type: in vivo, dog; conditions: for change of the maximum increase in CBF induced by Regadenoson vs control: p>0.05
Experimental: (§1) Sixteen chronically instrumented male mongrel dogs weighing from 22-30 kg were used in the study. The animal protocol was approved by the Institutional Animal Care and Use Committee of New York Medical College and conforms to the Guide for the Care and Use of Laboratory Animal by the United States National Institutes of Health.
(§2) Dogs were sedated with acepromazine (0.3 mg/kg, IM) and anesthetized with pentobarbital sodium (25 mg/kg, IV). After intubation, dogs were artificially ventilated with room air. A thoracotomy was made in the fifth intercostal space using sterile techniques. A Tygon catheter (Cardiovascular Instruments, Wakefield, Mass.) was inserted into the descending thoracic aorta and another one was inserted into the left atrium. In 9 dogs, an ultrasound flow transducer (Transonic Systems, Ithaca, N.Y.) was placed around the left circumflex coronary artery. A solid-state pressure gauge (P6.5, Konisberg Instruments, Pasadena, Calif.) was placed into the left ventricle through the apex. The chest was closed in layers. The catheters and wires were tunneled subcutaneously and externalized through the skin at the back of the dog's neck. Dogs were allowed to recover from the surgery before experiments were performed, and were trained to lie on a table.
(§3) Phasic arterial pressure was measured by connecting the aortic catheter to a strain gauge transducer (P23 ID, LDS Test and Measurement, Valley View, Ohio). Left ventricular pressures were measured by the solid pressure gauge. CBF (mL/min) was measured from an ultrasound flow transducer using a Transonic flowmeter (T206, Transonic Systems, Ithaca, N.Y.). Two indices were used to describe the Regadenoson-induced coronary vasodilation: 1) the maximum increase in CBF and 2) the duration of the 2-fold increase in CBF (the period of time that CBF was elevated to a level ≧2-fold of baseline CBF). All pressure and flow data were acquired and analyzed using a Ponemah System (Version 3.30 or 4.20, LDS Test and Measurement, Valley View, Ohio). MAP and HR were calculated from phasic blood pressure, and LV dP/dtMax was calculated from the left ventricular systolic pressure.
(§4) On the day of an experiment, a dog was placed on a table, where it lay quietly during the experiment. A catheter was inserted into a peripheral vein in the leg and attached to an infusion line to administer drugs without disturbing the dog. The experiment was begun after MAP, HR and CBF were stable.
In 4 dogs, two doses of Regadenoson (5 μg/kg, IV) were given 90 min apart (without blood sampling) to determine if there is tachyphylaxis of Regadenoson-induced coronary vasodilation.
(§5) Regadenoson was supplied by CV Therapeutics, Inc. as a sterile stock solution (Lot#: 803604, 0.08 mg/mL), that was made using 15% Propylene Glycol (pH 7) and was diluted in normal saline before injection.
(§6) The statistical significance of a difference between the value of a parameter at baseline and at the indicated time point after drug administration was determined using a One-Way Repeated Measures ANOVA followed by Tukey's Test. The statistical significance of a difference between responses to Regadenoson in the absence and presence of caffeine was determined using a Two-Way Repeated Measures ANOVA followed by Tukey's Test. Results with p<0.05 were considered to be significant. A computer-based software package (SigmaStat 2.03) was used for statistical analysis. All data are presented as Mean±SEM.

conscious dogs [2] = experiment: Regadenoson-induced changes in hemodynamics (MAP, HR, LVSP, LV dP/dtMax) with and without caffeine in conscious dogs; type: in vivo, dog; conditions: for increase in peak HR from baseline: p<0.05 vs control
Experimental: as §1, §2, §3, §4, §5
as §6, with “The statistical significance of a difference between responses to Regadenoson in the absence and presence of caffeine was determined using a Two-Way Repeated Measures ANOVA followed by Tukey's Test.” left out

normal subjects [3] = experiment: Safety and tolerability of regadenoson with and without prior caffeine; type: in vivo, human
Experimental: (§7) 15O water was used as the radionuclide in the PET scans. There was a 1- to 14-day washout period between dosing days. Blood samples and measures of safety were collected until 120 minutes after study drug administration.
Safety measures included adverse events (AEs), serious adverse events, vital signs (HR and BP), ECG, concomitant medications, and a tolerability questionnaire. All available data from subjects who received the single dose of regadenoson were to be included in the statistical summaries.
ECG intervals and changes from baseline values in ECG intervals were to be presented, as were occurrences of rhythm or conduction abnormalities. Concomitant medication usage was to be summarized.
Tolerability questionnaire responses were to be analyzed using the Wilcoxen rank sum test (“How did you feel?” question) and the exact Cochran-Mantel-Haenszel test (Day 2—only question “How did this test compare to the first test?”).

normal subjects [4] = experiment: Crossover PET study of regadenoson-induced myocardial blood flow (coronary flow reserve) with caffeine or placebo; type: in vivo, human
Experimental: as §7
Open-label study drug was supplied as sterile stock solution in single-use vials each containing 5 mL of regadenoson (0.08 mg/mL). Regadenoson, 400 μg, was administered as a rapid bolus, through an iv catheter over approximately 10 seconds, followed immediately by a 5 mL saline flush.
On each of 2 study days, subjects received a single dose of regadenoson, administered intravenously as a rapid (10-second) bolus of 5 mL, followed by a 5 mL saline flush. There was a 1- to 14-day washout period between doses.
The CVT tracking number for the placebo capsules was 1341 (Leg 2).
The primary efficacy measure was the log coronary flow reserve (CFR), which is the ratio of stress MBF after regadenoson dosing to the resting MBF.
The data were also to be analyzed using Wilcoxon's rank-sum test.

[5] = Plasma regadenoson concentrations after IV injection in conscious dogs; conditions: effect of caffeine at 1, 2, 4 or 10 mg/kg
Experimental: Each dog received an IV injection of 5 μg/kg of Regadenoson. […] LVSP, LV dP/dtMax, MAP, HR and CBF were recorded continuously. Blood samples were taken from the left atrial catheter at 1, 3, 5, 15, 30, 45 and 60 min following injections of Regadenoson.

[6] = regadenoson 5 μg/kg IV in the presence of caffeine 1 mg/kg
[7] = regadenoson 5 μg/kg IV in the presence of caffeine 2 mg/kg
[8] = caffeine 200 mg po before regadenoson 400 μg IV
[9] = regadenoson 400 μg IV, caffeine 200 mg po
[10] = after regadenoson 400 μg IV dosing
[11] = regadenoson 400 μg IV, at any time, 25/43 subjects

Cn1c(=O)c2c(ncn2C)n(C)c1=O [Caffeine, caffeine]
Baseline values of CBF before and after caffeine treatment (conscious dogs [1]; 45 min after 1, 2, 4, and 10 mg/kg caffeine): not significantly different
change of the maximum increase in CBF induced by Regadenoson vs control (conscious dogs [1]; regadenoson 5 μg/kg IV 45 min after caffeine 1 mg/kg IV): 2±3%
change of the maximum increase in CBF induced by Regadenoson vs control (conscious dogs [1]; regadenoson 5 μg/kg IV 45 min after caffeine 2 mg/kg IV): −0.7±3%
change of the maximum increase in CBF induced by Regadenoson vs control (conscious dogs [1]; regadenoson 5 μg/kg IV 45 min after caffeine 4 mg/kg IV): −16±5%
change of the maximum increase in CBF induced by Regadenoson vs control (conscious dogs [1]; regadenoson 5 μg/kg IV 45 min after caffeine 10 mg/kg IV): −13±8%
peak decrease in MAP from baseline (conscious dogs [2]; regadenoson 5 μg/kg IV in the presence of 4 mg/kg caffeine): 2±5%
decrease in LVSP from control (conscious dogs [2]; regadenoson 5 μg/kg IV in the presence of 4 mg/kg of caffeine, p>0.05): 1±5%
increase in MAP from baseline (conscious dogs [2]; regadenoson 5 μg/kg IV in the presence of 10 mg/cg caffeine, insignificant): 9±6%
increase in LVSP from control (conscious dogs [2]; regadenoson 5 μg/kg IV in the presence of 10 mg/kg caffeine, significant): 11±7%
decrease in LVSP from baseline (conscious dogs [2]; [6]): 9±3%
peak decrease in MAP from baseline (conscious dogs [2]; [6]): 13±2%
decrease in LVSP from baseline (conscious dogs [2]; [7]): 6±2%
peak decrease in MAP from baseline (conscious dogs [2]; [7]): 13±1%
increase in peak HR from baseline (conscious dogs [2]; [7]): 109±21%
increase in peak HR from baseline (conscious dogs [2]; regadenoson 5 μg/kg IV in the presence of caffeine 4 mg/kg): 79±20%
increase in peak HR from baseline (conscious dogs [2]; regadenoson 5 μg/kg IV in the presence of caffeine 10 mg/kg): 74±16%
effect of caffeine on the severity of AEs (normal subjects [3]; [8]): attenuated
overall incidence of AEs between the placebo and caffeine groups (normal subjects [3]; [8]): no difference
effect of caffeine on the HR increase caused by regadenoson (normal subjects [3]; caffeine 200 mg po before regadenoson 400 μg IV, p<0.001): attenuated
tolerability questionnaire: feeling after the caffeine test vs after the placebo test (normal subjects [3]; caffeine 200 mg po, regadenoson 400 μg IV, p<0.001): felt better
tolerability questionnaire: comfort during the test (normal subjects [3]; test with caffeine 200 mg po vs placebo, regadenoson 400 μg IV, p<0.001): felt more comfortable
change in CFR with caffeine (normal subjects [4]; caffeine 200 mg po vs placebo before regadenoson 400 μg IV): no change in CFR detected
change in CFR (printed: not ≧20%) (normal subjects [4]; caffeine 200 mg po vs placebo before regadenoson 400 μg IV, 95% confidence): < 20%
exponentiated lower limit of the 90% confidence interval for log CFR (caffeine versus placebo difference) (normal subjects [4]; [9]): 0.80
exponentiated lower limit of the 95% confidence interval for log CFR (caffeine versus placebo difference) (normal subjects [4]; [9]): 0.78
exponentiated upper limit of the 90% confidence interval for log CFR (caffeine versus placebo difference) (normal subjects [4]; [9]): 1.06
exponentiated upper limit of the 95% confidence interval for log CFR (caffeine versus placebo difference) (normal subjects [4]; [9]): 1.08
Pharmacokinetic profiles of Regadenoson [5]: not changed

CNC(=O)c1cnn(-c2nc(N)c3ncn([C@@H]4O[C@H](CO)[C@@H](O)[C@H]4O)c3n2)c1 [Regadenoson, (1-{9-[(4S,2R,3R,5R)-3,4-dihydroxy-5-(hydroxymethyl)oxolan-2-yl]-6-aminopurin-2-yl}pyrazol-4-yl)-N-methylcarboxamide]
decrease in MAP (peak) from baseline (conscious dogs [2]; regadenoson 5 μg/kg IV in the absence of caffeine, baseline 102±2 mm Hg, n=9): 15±2%
increase in HR (peak) from baseline (conscious dogs [2]; regadenoson 5 μg/kg IV without caffeine, baseline 80±4 beats/min, n=9): 114±14%
decrease in LVSP (peak) from baseline (conscious dogs [2]; regadenoson 5 μg/kg IV without caffeine, baseline 139±5 mm Hg, n=8): 9±1%
increase in LV dP/dtMax (peak) from baseline (conscious dogs [2]; regadenoson 5 μg/kg IV, baseline 3240±196 mm Hg/s): 65±7%
QTc prolongation (>500 msec and change of >60 msec) by ECG analysis, not reported as AE (normal subjects [3]; [10]): one subject
first degree AV block by ECG analysis, not reported as AE (normal subjects [3]; [10]): one subject
subjects with sensation of heaviness (normal subjects [3]; regadenoson 400 μg IV): 28%
subjects with paraesthesia (normal subjects [3]; regadenoson 400 μg IV, 8/43 subjects): 19%
subjects with headache (normal subjects [3]; regadenoson 400 μg IV, 12/43 subjects): 28%
subjects with flushing (normal subjects [3]; regadenoson 400 μg IV, 13/43 subjects): 30%
subjects with palpitations (normal subjects [3]; regadenoson 400 μg IV, 21/43 subjects): 49%
subjects with dyspnoea (normal subjects [3]; regadenoson 400 μg IV, 24/43 subjects): 56%
subjects with AEs: ear and labyrinth disorders (normal subjects [3]; regadenoson 400 μg IV, at any time, 1/43 subjects): 2%
subjects with AEs: gastrointestinal disorders (normal subjects [3]; regadenoson 400 μg IV, at any time, 2/43 subjects): 5%
subjects with AEs: general disorders and administration site conditions (normal subjects [3]; regadenoson 400 μg IV, at any time, 11/43 subjects): 26%
subjects with AEs: musculoskeletal and connective tissue disorders (normal subjects [3]; regadenoson 400 μg IV, at any time, 12/43 subjects): 28%
subjects with AEs: vascular disorders (normal subjects [3]; regadenoson 400 μg IV, at any time, 13/43 subjects): 30%
subjects with AEs: nervous system disorders (normal subjects [3]; regadenoson 400 μg IV, at any time, 18/43 subjects): 42%
subjects with AEs: cardiac disorders (normal subjects [3]; [11]): 58%
subjects with AEs: respiratory, thoracic and mediastinal disorders (normal subjects [3]; [11]): 58%

From patent publication US20090081120A1, “Methods and Compositions for Increasing Patient Tolerability During Myocardial Imaging Methods” (CV Therapeutics, Inc., priority 2006, published 2009)
